# Reference: publication PMC6480460, “Derivatives of the β-Crinane Amaryllidaceae Alkaloid Haemanthamine as Multi-Target Directed Ligands for Alzheimer’s Disease” (Molecules, 2019)
# Columns and labels:
# [1] = target: hAChE (Homo sapiens, UniProt P22303); test: biochemical; format: biochemical; conditions: for IC50: mean ± SEM of three independent measurements, each in triplicate; for SI for hAChE: selectivity index, ratio hBuChE IC50/hAChE IC50
# Experimental: (§1) The hAChE and hBuChE activities were determined using a modified method of Ellman with acetylthiocholine iodide (ATChI) and butyrylthiocholine iodide (BuTChI) as substrates, respectively.
# [2] = target: hBuChE (Homo sapiens, UniProt P06276); test: biochemical; format: biochemical; conditions: mean ± SEM of three independent measurements, each in triplicate; read-out: hBuChE IC50
# Sequence of hBuChE (P06276 29-602): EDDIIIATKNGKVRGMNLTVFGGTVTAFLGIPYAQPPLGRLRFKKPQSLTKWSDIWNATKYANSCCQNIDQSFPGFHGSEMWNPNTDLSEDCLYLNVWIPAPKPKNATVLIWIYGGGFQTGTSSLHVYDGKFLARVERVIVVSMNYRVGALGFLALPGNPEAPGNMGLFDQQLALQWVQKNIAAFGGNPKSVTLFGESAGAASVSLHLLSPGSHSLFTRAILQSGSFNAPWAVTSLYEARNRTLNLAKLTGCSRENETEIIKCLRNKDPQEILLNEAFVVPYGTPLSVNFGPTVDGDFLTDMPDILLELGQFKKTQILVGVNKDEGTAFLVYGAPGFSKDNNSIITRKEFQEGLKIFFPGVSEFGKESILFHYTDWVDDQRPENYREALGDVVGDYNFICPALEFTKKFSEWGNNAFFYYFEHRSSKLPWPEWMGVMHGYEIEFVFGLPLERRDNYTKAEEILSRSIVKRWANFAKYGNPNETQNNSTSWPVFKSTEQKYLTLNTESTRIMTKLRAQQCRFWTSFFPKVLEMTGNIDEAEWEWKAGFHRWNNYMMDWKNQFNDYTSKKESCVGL
# Experimental: as §1
# [3] = tested on: PANC-1 (pancreas epithelioid carcinoma); test: WST-1 cytotoxicity assay, PANC-1; format: cell-based; conditions: Homo sapiens, c = 10 μM, 48 h, percent of proliferation of untreated control cells, read-out: Cell proliferation, PANC-1
# Excerpt: (§2) Selected human tumor and non-tumor cell lines {Jurkat (acute T cell leukemia), MOLT-4 (acute lymphoblastic leukemia), A549 (lung carcinoma), HT-29 (colorectal adenocarcinoma), PANC-1 (pancreas epithelioid carcinoma), A2780 (ovarian carcinoma), HeLa (cervix adenocarcinoma), MCF-7 (breast adenocarcinoma), SAOS-2 (osteosarcoma) and MRC-5 (normal lung fibroblasts)} were purchased from either ATCC (Manassas, VA, USA) or Sigma-Aldrich (St. Louis, MO, USA) and cultured according to the provider’s culture method guidelines. […] Cells in the maximum range of either 10 passages for primary cell line (MRC-5), or in the maximum range of 20 passages for cancer cell lines (Jurkat, MOLT-4, A549, HT-29, PANC-1, A2780, HeLa, MCF-7 and SAOS-2) and in an exponential growth phase were used for this study.
# (§3) The WST-1 (Roche, Mannheim, Germany) reagent was used to determine the cytostatic effect of the test compounds. WST-1 is designed for the spectrophotometric quantification of cell proliferation, growth, viability and chemosensitivity in cell populations using a 96-well-plate format (Sigma, St. Louis, MO, USA). The principle of WST-1 is based on photometric detection of the reduction of tetrazolium salt to a colored formazan product. The cells were seeded at a previously established optimal density (30,000 Jurkat, 25,000 MOLT-4, 500 A549, 1500 HT-29, 2000 PANC-1, 5000 A2780, 500 HeLa, 1500 MCF-7, 2000 SAOS-2 and 2000 MRC-5 cells/well) in 100 µL of culture medium, and adherent cells were allowed to reattach overnight. Thereafter, the cells were treated with 100 µL of either corresponding alkaloids or doxorubicin stock solutions to obtain the desired concentrations and incubated in 5% CO2 at 37 °C. WST-1 reagent diluted 4-fold with PBS (50 µL) was added 48 h after treatment. Absorbance was measured after 3 h incubation with WST-1 at 440 nm. The measurements were performed in a Tecan Infinite M200 spectrometer (Tecan Group, Männedorf, Switzerland). All experiments were performed at least three times with triplicate measurements at each drug concentration per experiment. The viability was quantified as described previously according to the following formula: (%) viability = (Asample − Ablank)/(Acontrol − Ablank) × 100, where A is the absorbance of the employed WST-1 formazan measured at 440 nm. The viability of the treated cells was normalized to the viability of cells treated with 0.1% DMSO (Sigma-Aldrich) as a vehicle control.
# [4] = target: GSK-3β (Homo sapiens, UniProt P49841); test: GSK-3β assay (Kinase-Glo Kit); format: biochemical; conditions: tested at 10 µM compound concentration; read-out: GSK-3β (% inhib.)
# Sequence of GSK-3β (P49841 whole entry): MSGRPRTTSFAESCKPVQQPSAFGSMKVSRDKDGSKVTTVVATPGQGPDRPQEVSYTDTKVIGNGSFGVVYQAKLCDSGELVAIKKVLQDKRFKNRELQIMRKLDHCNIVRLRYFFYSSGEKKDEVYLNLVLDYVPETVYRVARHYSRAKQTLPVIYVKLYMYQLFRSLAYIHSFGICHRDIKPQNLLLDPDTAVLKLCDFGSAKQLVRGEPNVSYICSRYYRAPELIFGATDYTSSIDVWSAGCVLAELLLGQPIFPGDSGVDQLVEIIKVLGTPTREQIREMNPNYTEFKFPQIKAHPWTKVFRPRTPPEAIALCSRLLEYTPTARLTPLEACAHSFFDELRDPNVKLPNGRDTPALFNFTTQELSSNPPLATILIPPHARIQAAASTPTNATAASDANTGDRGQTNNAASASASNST
# Experimental: The GSK-3β assay was performed by using Kinase-Glo Kit obtained from Promega (Promega Biotech Iberica, SL, Madrid, Spain) as described previously.
# [5] = tested on: MOLT-4 (acute lymphoblastic leukemia); test: WST-1 cytotoxicity assay, MOLT-4; format: cell-based; conditions: Homo sapiens, c = 10 μM, 48 h, percent of proliferation of untreated control cells, read-out: Cell proliferation, MOLT-4
# Excerpt: as §2, §3
# [6] = tested on: MRC-5 (normal lung fibroblasts); test: WST-1 cytotoxicity assay, MRC-5; format: cell-based; conditions: Homo sapiens, MRC5; c = 10 μM, 48 h, percent of proliferation of untreated control cells; read-out: Cell proliferation, MRC-5
# Excerpt: as §2, §3
# [7] = tested on: Jurkat (acute T cell leukemia); test: WST-1 cytotoxicity assay, Jurkat; format: cell-based; conditions: Homo sapiens, c = 10 μM, 48 h, percent of proliferation of untreated control cells
# Excerpt: as §2, §3
# [8] = tested on: A2780 (ovarian carcinoma); test: WST-1 cytotoxicity assay, A2780; format: cell-based; conditions: Homo sapiens, c = 10 μM, 48 h, percent of proliferation of untreated control cells, read-out: Cell proliferation, A2780
# Excerpt: as §2, §3
# [9] = tested on: SAOS-2 (osteosarcoma); test: WST-1 cytotoxicity assay, SAOS-2; format: cell-based; conditions: Homo sapiens, c = 10 μM, 48 h, percent of proliferation of untreated control cells, read-out: Cell proliferation, SAOS-2
# Excerpt: as §2, §3
# [10] = tested on: MCF-7 (breast adenocarcinoma); test: WST-1 cytotoxicity assay, MCF-7; format: cell-based; conditions: Homo sapiens, MCF7; c = 10 μM, 48 h, percent of proliferation of untreated control cells; read-out: Cell proliferation, MCF-7
# Excerpt: as §2, §3
# [11] = tested on: HT-29 (colorectal adenocarcinoma); test: WST-1 cytotoxicity assay, HT-29; format: cell-based; conditions: Homo sapiens, c = 10 μM, 48 h, percent of proliferation of untreated control cells, read-out: Cell proliferation, HT-29
# Excerpt: as §2, §3
# [12] = tested on: A549 (lung carcinoma); test: WST-1 cytotoxicity assay, A549; format: cell-based; conditions: Homo sapiens, c = 10 μM, 48 h, percent of proliferation of untreated control cells, read-out: Cell proliferation, A549
# Excerpt: as §2, §3
# [13] = in vitro; conditions: for PAMPA-BBB prediction of penetration in the CNS: class from Pe
# Experimental: The PAMPA assay was performed as previously described.
# [14] = tested on: HeLa (cervix adenocarcinoma); test: WST-1 cytotoxicity assay, HeLa; format: cell-based; conditions: Homo sapiens, c = 10 μM, 48 h, percent of proliferation of untreated control cells, read-out: Cell proliferation, HeLa
# Excerpt: as §2, §3
# Sequence of hAChE (P22303 32-614): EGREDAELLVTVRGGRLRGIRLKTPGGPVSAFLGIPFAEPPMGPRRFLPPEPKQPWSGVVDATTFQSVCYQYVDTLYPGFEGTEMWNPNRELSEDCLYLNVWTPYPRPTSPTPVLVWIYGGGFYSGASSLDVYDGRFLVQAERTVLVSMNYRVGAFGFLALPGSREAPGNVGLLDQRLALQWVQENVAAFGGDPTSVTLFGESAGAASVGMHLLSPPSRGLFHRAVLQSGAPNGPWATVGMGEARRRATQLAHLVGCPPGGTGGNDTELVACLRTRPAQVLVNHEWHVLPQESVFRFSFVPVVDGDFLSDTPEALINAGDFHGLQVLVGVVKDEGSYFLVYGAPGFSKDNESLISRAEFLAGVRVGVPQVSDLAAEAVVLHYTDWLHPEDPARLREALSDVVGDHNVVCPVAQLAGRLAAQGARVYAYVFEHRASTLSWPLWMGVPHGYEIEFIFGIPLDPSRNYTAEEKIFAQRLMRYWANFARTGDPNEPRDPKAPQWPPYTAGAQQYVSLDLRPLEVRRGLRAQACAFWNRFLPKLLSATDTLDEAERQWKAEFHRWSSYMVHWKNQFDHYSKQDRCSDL
Structure (SMILES),IC50 [1] [µM],SI for hAChE [1],IC50 [2] [µM],activity at 10 µM [3] [%],inhibition at 10 µM [4] [%],viability at 10 µM [5] [%],activity at 10 µM [6] [%],activity at 10 µM [7] [%],activity at 10 µM [8] [%],activity at 10 µM [9] [%],activity at 10 µM [10] [%],activity at 10 µM [11] [%],activity at 10 µM [12] [%],PAMPA-BBB prediction of penetration in the CNS [13],PAMPA-BBB prediction of penetration in the CNS ([13]; listed as 18g),activity at 10 µM [14] [%],"Papp ([13]; pig, PAMPA, PAMPA-BBB Permeability (Pe)) [×10⁻⁶ cm/s]"
"COC1C=CC23c4cc5c(cc4CN(CC2OC(=O)c2cccc(Cl)c2)C3C1)OCO5 (stereo not drawn) [Compound 1h, 11-O-(3-Chlorobenzoyl)haemanthamine]",85.1 ± 6.4,0.9,80.2 ± 10.2,,,,,,,,,,,,,,
"COC1C=CC23c4cc5c(cc4CN(CC2OC(=O)c2ccccc2)C3C1)OCO5 (stereo not drawn) [Compound 1g, 11-O-Benzoylhaemanthamine]",294 ± 25,0.02,5.8 ± 0.3,100 ± 10,11 ± 2,110 ± 19,101 ± 5,83 ± 11,120 ± 10,104 ± 9,108 ± 10,110 ± 17,98 ± 2,CNS+ (CNS(+): high BBB permeation predicted with Pe (10^−6 cm.s^−1) > 4.0),CNS +,98 ± 2,
"COC1C=CC23c4cc5c(cc4CN(CC2OC(=O)C(C)C)C3C1)OCO5 (stereo not drawn) [Compound 1c, 11-O-Isobutanoylhaemanthamine]",> 500,< 0.4,203 ± 8,85 ± 13,,99 ± 8,95 ± 7,110 ± 3,123 ± 9,85 ± 15,103 ± 7,82 ± 17,84 ± 3,,,74 ± 8,
"CN(C)CCCN1c2ccccc2Sc2ccccc21 [Promazine, reference compound]",,,,,,,,,,,,,,,,,8.6
"CCC(=O)OC1CN2Cc3cc4c(cc3C13C=CC(OC)CC23)OCO4 (stereo not drawn) [Compound 1b, 11-O-Propionylhaemanthamine]",> 500,< 0.9,437 ± 38,70 ± 13,,97 ± 8,102 ± 13,104 ± 3,104 ± 3,96 ± 16,85 ± 7,79 ± 15,84 ± 3,,,69 ± 11,
"CCCCC(=O)OC1CN2Cc3cc4c(cc3C13C=CC(OC)CC23)OCO4 (stereo not drawn) [Compound 1d, 11-O-Pentanoylhaemanthamine]",> 500,,> 500,88 ± 3,,96 ± 1,89 ± 3,92 ± 1,99 ± 2,88 ± 6,93 ± 5,94 ± 4,99 ± 7,,,93 ± 6,
"COC1C=CC23c4cc5c(cc4CN(CC2OC(C)=O)C3C1)OCO5 (stereo not drawn) [Compound 1a, 11-O-Acetylhaemanthamine]",> 500,,> 500,114 ± 4,,106 ± 9,113 ± 12,100 ± 13,107 ± 17,88 ± 6,97 ± 19,97 ± 10,95 ± 9,,,83 ± 6,
"COc1cccc2c1C(=O)c1c(O)c3c(c(O)c1C2=O)C[C@@](O)(C(=O)CO)C[C@@H]3O[C@H]1C[C@H](N)[C@H](O)[C@H](C)O1 [DOX, Doxorubicin, reference compound]",,,,59 ± 9,,0,40 ± 4,0,5 ± 1,73 ± 8,41 ± 7,77 ± 12,66 ± 16,,,7 ± 10,
"CCCCCC(=O)OC1CN2Cc3cc4c(cc3C13C=CC(OC)CC23)OCO4 (stereo not drawn) [Compound 1e, 11-O-Hexanoylhaemanthamine]",> 500,< 0.5,273 ± 18,96 ± 4,,97 ± 3,96 ± 4,100 ± 7,106 ± 5,96 ± 8,95 ± 4,100 ± 3,105 ± 9,,,98 ± 3,
"COc1cccc(C(=O)OC2CN3Cc4cc5c(cc4C24C=CC(OC)CC34)OCO5)c1 (stereo not drawn) [Compound 1k, 11-O-(3-Methoxybenzoyl)haemanthamine]",180 ± 17,0.4,75.5 ± 12.5,88 ± 5,,94 ± 18,92 ± 1,83 ± 1,108 ± 7,89 ± 15,100 ± 2,93 ± 3,102 ± 5,,,84 ± 12,
"COC1C=CC23c4cc5c(cc4CN(CC2OC(=O)c2cccc(Br)c2)C3C1)OCO5 (stereo not drawn) [Compound 1i, 11-O-(3-Bromobenzoyl)haemanthamine]",112 ± 21,1.1,129 ± 25,108 ± 2,,115 ± 15,105 ± 3,133 ± 10,162 ± 9,97 ± 10,105 ± 4,120 ± 4,122 ± 5,,,93 ± 5,
"CCCC(=O)OC1CN2Cc3cc4c(cc3C13C=CC(OC)CC23)OCO4 (stereo not drawn) [Compound 1f, 11-O-Butanoylhaemanthamine]",> 500,< 0.3,140 ± 21,99 ± 6,,101 ± 18,87 ± 14,90 ± 12,104 ± 8,104 ± 7,96 ± 13,101 ± 3,106 ± 12,,,88 ± 3,
